Laboratory results taken from patent US10988459B2 (priority 2015, dated 2021).

molecular target: human RIP1 kinase domain (2-375) (Homo sapiens (Human), UniProt Q13546); test: biochemical; format: biochemical; conditions: Table 1; apparent Ki (Morrison tight-binding fit); 50 nM RIP1 kinase domain, 50 uM ATP, 2 hours incubation; read-out: RIP1 Ki
How it was run: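 Ki^app comes from Morrison tight-binding fits of fractional activity versus compound concentration. Activity was read as ADP production, via tracer displacement lowering fluorescence polarization (633 nm laser). Conditions: 2 h, 50 nM insect-cell-expressed enzyme, 50 uM ATP, 30 mM MgCl2, 1 mM DTT, 0.5% DMSO, pH 7.5 Hepes.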

human RIP1 kinase domain (2-375), sequence (Q13546 2-375): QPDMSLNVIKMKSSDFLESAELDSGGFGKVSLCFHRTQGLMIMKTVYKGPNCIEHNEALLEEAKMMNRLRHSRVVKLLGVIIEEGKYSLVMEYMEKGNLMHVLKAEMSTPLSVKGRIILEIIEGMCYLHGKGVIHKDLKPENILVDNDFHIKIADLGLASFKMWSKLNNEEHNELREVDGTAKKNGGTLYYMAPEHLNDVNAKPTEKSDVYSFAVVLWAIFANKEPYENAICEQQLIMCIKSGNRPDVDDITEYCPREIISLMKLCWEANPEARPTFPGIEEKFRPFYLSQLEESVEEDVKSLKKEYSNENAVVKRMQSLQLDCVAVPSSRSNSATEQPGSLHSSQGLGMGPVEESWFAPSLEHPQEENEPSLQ

Cc1cnn2c1N(C)C(=O)C(NC(=O)c1nnc(Cc3ccccc3)[nH]1)CC2 (stereo not drawn) [Example 31, 5-benzyl-N-(3,4-dimethyl-5-oxo-7,8-dihydro-6H-pyrazolo[1,5-a][1,3]diazepin-6-yl)-4H-1,2,4-triazole-3-carboxamide] gave a Ki of 140 nM.

same assay, conditions: human RIP1 kinase domain (2-375), 50 uM ATP, 2 hours incubation, Transcreener ADP assay; read-out: RIP1 Ki

For O=C(NC1CCn2ncc3c2N(CCO3)C1=O)c1ncn(Cc2ccccc2)n1 (stereo not drawn) [Example 198, 1-benzyl-N-(6-oxo-4,5,6,7,8,9-hexahydro-3-oxa-1,5a,9a-triazabenzo[cd]azulen-7-yl)-1H-1,2,4-triazole-3-carboxamide], the Ki was 232 nM.

same assay, conditions: read-out: RIP1 Ki

Going from CN1C(=O)[C@@H](NC(=O)c2n[nH]c3c2C[C@@H](C(C)(C)C)CC3)COc2ccccc21 [Example 58, (S)-5-(tert-butyl)-N-((S)-5-methyl-4-oxo-2,3,4,5-tetrahydrobenzo[b][1,4]oxazepin-3-yl)-4,5,6,7-tetrahydro-1H-indazole-3-carboxamide] to C[C@@H]1CCc2[nH]nc(C(=O)N[C@H]3COc4ccccc4N(C)C3=O)c2C1 [Example 60, (R)-5-methyl-N-((S)-5-methyl-4-oxo-2,3,4,5-tetrahydrobenzo[b][1,4]oxazepin-3-yl)-4,5,6,7-tetrahydro-1H-indazole-3-carboxamide], the Ki falls from 121 nM to 15.6 nM (7.8-fold). The second binds more tightly here.

same assay, conditions: tight-binding apparent inhibition constant; human RIP1 kinase domain (2-375) 50 nM, 50 uM ATP, 2 hours; read-out: Ki

Going from CN1C(=O)[C@H](NC(=O)c2ncn(Cc3ccccc3)n2)CCn2nc([C@H]3CC3(F)F)cc21 (racemic) [Example 674, 1-benzyl-N-[rac-(6R)-4-methyl-5-oxo-2-[rac-(1R)-2,2-difluorocyclopropyl]-7,8-dihydro-6H-pyrazolo[1,5-a] [1,3]diazepin-6-yl]-1,2,4-triazole-3-carboxamide] to CN1C(=O)C(NC(=O)c2ncn(Cc3ccccc3)n2)CCn2nc(C3CCC3)cc21 (stereo not drawn) [Example 454, 1-Benzyl-N-(2-cyclobutyl-4-methyl-5-oxo-5,6,7,8-tetrahydro-4H-pyrazolo[1,5-a][13]diazepin-6-yl)-1H-1,2,4-triazole-3-carboxamide], the Ki falls from 3980 nM to 46 nM (87-fold). The second binds more tightly here.

Going from CN1C(=O)[C@@H](NC(=O)c2cc3c(cn2)cnn3C(F)(F)F)COc2ccccc21 [Example 356, (S)—N-(5-methyl-4-oxo-2,3,4,5-tetrahydrobenzo[b][1,4]oxazepin-3-yl)-1-(trifluoromethyl)-1H-pyrazolo[4,3-c]pyridine-6-carboxamide] to CN1C(=O)[C@@H](NC(=O)c2nc3n(n2)[C@H](c2ccccc2F)CC3)CCn2nccc21 [Example 669, (5S)-5-(2-fluorophenyl)-N-[(6S)-4-methyl-5-oxo-7,8-dihydro-6H-pyrazolo[1,5-a][1,3]diazepin-6-yl]-6,7-dihydro-5H-pyrrolo[1,2-b][1,2,4]triazole-2-carboxamide], the Ki rises from 7.02 nM to 610 nM (87-fold).

First: Cc1cc2n(n1)CC[C@H](NC(=O)c1ncc3cnn(C4CCOCC4)c3n1)C(=O)N2C [Example 559, N-[(6S)-2,4-dimethyl-5-oxo-7,8-dihydro-6H-pyrazolo[1,5-a][1,3]diazepin-6-yl]-1-tetrahydropyran-4-yl-pyrazolo[3,4-d]pyrimidine-6-carboxamide]
Second: Cc1cc2n(n1)CC[C@H](NC(=O)c1nc3n(n1)CCCC3c1ccccc1)C(=O)N2C (stereo partly drawn) [Example 554, 8-phenyl-N-[(6S)-2,4-dimethyl-5-oxo-7,8-dihydro-6H-pyrazolo[1,5-a][1,3]diazepin-6-yl]-5,6,7,8-tetrahydro-[1,2,4]triazolo[1,5-a]pyridine-2-carboxamide]
The Ki of the first is 1.7-fold higher: 570 nM for the first, 330 nM for the second.

Going from CN1C(=O)[C@@H](NC(=O)c2nc3n(n2)[C@@H](c2ccccc2)CCC3)CCn2nccc21 (racemic) [Example 385, (R)—N—((S)-4-methyl-5-oxo-5,6,7,8-tetrahydro-4H-pyrazolo[1,5-a][1,3]diazepin-6-yl)-5-phenyl-5,6,7,8-tetrahydro-[1,2,4]triazolo[1,5-a]pyridine-2-carboxamide] to CN1C(=O)[C@@H](NC(=O)c2nc3cccc(-c4c(F)cccc4F)n3n2)CCn2nccc21 [Example 394, (S)-5-(2,6-difluorophenyl)-N-(4-methyl-5-oxo-5,6,7,8-tetrahydro-4H-pyrazolo[1,5-a][1,3]diazepin-6-yl)-[1,2,4]triazolo[1,5-a]pyridine-2-carboxamide], the Ki falls from 24.4 nM to 6.04 nM (4-fold). The second binds more tightly here.
